Test results: ChEMBL document CHEMBL1201862, “PubChem BioAssay data set” (2004)
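Step 1: Grow cells in 96-well plates. Step 2: Expose to compound for 48 hours at 5 concentrations. Step 3: Interpolate endpoints linearly; if unreached, use highest concentration. GI50 = concentration required for 50% inhibition of growth.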 Activity calls are given as the source filed them. Cut-off read from the data, not from the text of the source: active = GI50 up to about 1.1 µM and inactive = higher. Where a SMILES comes first, the peptide text is derived from it. [ ]: non-standard residue; d: D form. The star is where a group is joined. Bn2Val = CC(C)[C@@H](C(=O)*)N(Cc1ccccc1)Cc1ccccc1; NHPiperonyl = c1cc2c(cc1CN*)OCO2; NMeV = CN[C@H](C(=O)O)C(C)C; dNMeA = CN[C@H](C)C(=O)O

What was measured:
Assay in all cases: inhibition of tumour cell growth, NCI panel, 48 h
SNB-75 = system: SNB-75
RXF 393 = system: RXF 393
CAKI-1 = system: CAKI-1
OVCAR-3 = system: OVCAR-3
A498 = system: A498
CCRF-CEM = system: CCRF-CEM
SK-MEL-2 = system: SK-MEL-2
SF-539 = system: SF-539
HOP-92 = system: HOP-92
TK-10 = system: TK-10
HL-60 = system: HL-60
SF-295 = system: SF-295
SN12C = system: SN12C
OVCAR-4 = system: OVCAR-4
SR = system: SR
OVCAR-5 = system: OVCAR-5
MCF7 = system: MCF7
MDA-N = system: MDA-N
MDA-MB-435 = system: MDA-MB-435

Row | SMILES | GI50 (SNB-75) | GI50 (RXF 393) | GI50 (CAKI-1) | GI50 (OVCAR-3) | GI50 (A498) | GI50 (CCRF-CEM) | GI50 (SK-MEL-2) | GI50 (SF-539) | GI50 (HOP-92) | GI50 (TK-10) | GI50 (HL-60) | GI50 (SF-295) | GI50 (SN12C) | GI50 (OVCAR-4) | GI50 (SR) | GI50 (OVCAR-5) | GI50 (MCF7) | GI50 (MDA-N) | GI50 (MDA-MB-435)
1 | CCOC(=O)C1CC/C(=C(/C#N)C(=O)OC)N1 (stereo unspecified) | > 100 µM (inactive) | > 100 µM (inactive) | > 100 µM (inactive) | > 100 µM (inactive) | > 100 µM (inactive) | > 100 µM (inactive) | > 100 µM (inactive) | > 100 µM (inactive) | > 100 µM (inactive) | > 100 µM (inactive) | > 100 µM (inactive) | > 100 µM (inactive) | > 100 µM (inactive) | > 100 µM (inactive) | > 100 µM (inactive) |  |  |  | 
2 | O=C1C2c3[nH]c4ccccc4c3C3CCCCCC3C2C(=O)N1c1ccccc1 (stereo unspecified) | 3.44 µM (inactive) | 12.4 µM (inactive) | 17.4 µM (inactive) | 16.3 µM (inactive) | 30.8 µM (inactive) | 9.57 µM (inactive) | 22.9 µM (inactive) | 14.4 µM (inactive) | 30.1 µM (inactive) | 35.3 µM (inactive) | > 45.6 µM (inactive) | 11 µM (inactive) | 9.71 µM (inactive) | 3.09 µM (inactive) | > 33.3 µM (inactive) | > 100 µM (inactive) |  |  | 
3 | Cn1c2ccccc2c(=O)c2c([N+](=O)[O-])ccc(NCCN)c21 | 12.1 µM (inactive) | 9.62 µM (inactive) | 11.9 µM (inactive) | 13.8 µM (inactive) | 16.5 µM (inactive) |  | 15.3 µM (inactive) | 8.24 µM (inactive) | 6.76 µM (inactive) | 14.7 µM (inactive) | 4.17 µM (inactive) | 12.5 µM (inactive) | 5.14 µM (inactive) | 12.2 µM (inactive) | 20.1 µM (inactive) | 13.8 µM (inactive) |  |  | 
4 | CC(=O)OCc1cc(OC(C)=O)cnc1COC(C)=O | > 100 µM (inactive) | > 100 µM (inactive) | > 100 µM (inactive) | > 100 µM (inactive) | > 100 µM (inactive) | > 100 µM (inactive) | > 100 µM (inactive) | > 100 µM (inactive) | > 100 µM (inactive) | > 100 µM (inactive) | > 100 µM (inactive) | > 100 µM (inactive) | > 100 µM (inactive) | > 100 µM (inactive) | > 100 µM (inactive) | > 100 µM (inactive) |  |  | 
5 | C/N=C(\NC(=S)N(C)C)N(C)C | > 100 µM (inactive) | > 100 µM (inactive) | > 100 µM (inactive) |  | > 100 µM (inactive) | > 100 µM (inactive) | > 100 µM (inactive) | > 100 µM (inactive) | > 100 µM (inactive) | > 100 µM (inactive) | > 100 µM (inactive) | > 100 µM (inactive) | > 100 µM (inactive) | > 100 µM (inactive) | > 100 µM (inactive) | > 100 µM (inactive) |  |  | 
6 | CCOc1ccc(/C=C/c2cc(OC)c(OC)c(OC)c2)cc1 | 0.701 µM (active) | 0.347 µM (active) | 0.564 µM (active) | 0.596 µM (active) | 0.439 µM (active) | 1.86 µM (inactive) | 1.23 µM (inactive) | 0.456 µM (active) | 10.8 µM (inactive) | 8.83 µM (inactive) | 0.509 µM (active) | 0.346 µM (active) | 4.02 µM (inactive) | 11.7 µM (inactive) | 2.46 µM (inactive) | > 100 µM (inactive) |  |  | 
7 | CC(C)[C@H](NC(=O)[C@H](C(C)C)N(Cc1ccccc1)Cc1ccccc1)C(=O)N(C)[C@H](C(=O)N1CCC[C@H]1C(=O)N(C)[C@H](C)C(=O)NCc1ccc2c(c1)OCO2)C(C)C (Bn2Val-V[NMeV]P[dNMeA]-NHPiperonyl) |  |  | 19.9 µM (inactive) | 5.01 µM (inactive) |  | 2.56 µM (inactive) | 5.97 µM (inactive) | 3.37 µM (inactive) |  | 18.3 µM (inactive) | 1.17 µM (inactive) | 4.94 µM (inactive) |  | 5.85 µM (inactive) |  | 4.38 µM (inactive) | 2.25 µM (inactive) | 12.1 µM (inactive) | 17.2 µM (inactive)
